Among the data in US20040186288A1, “3,5-Diamino-1,2,4-triazoles as kinase inhibitors” (priority 2001, published 2004) are melting point and IC50 values, retold here.

A value given as a limit tells only on which side of the number the result lay.

One data set relates to human MCF7 tumor cells. Kind of data set: Proliferation assay (crystal violet). The format is cell-based. As to conditions: 96 h, 4 days incubation, read-out: MCF-7 IC50. The procedure:
Cultivated human MCF7 tumor cells were flattened out at a density of 5000 cells/measuring point in a 96-well multititer plate in 200 μl of the corresponding growth medium. After 24 hours, the cells of one plate (zero-point plate) were colored with crystal violet (see below), while the medium of the other plates was replaced by fresh culture medium (200 μl), to which the test substances were added in various concentrations (0 μm, as well as in the range of 0.01-30 μm; the final concentration of the solvent dimethyl sulfoxide was 0.5%). The cells were incubated for 4 days in the presence of test substances. The cell proliferation was determined by coloring the cells with crystal violet: the cells were fixed by adding 20 μl/measuring point of an 11% glutaric aldehyde solution for 15 minutes at room temperature. After three washing cycles of the fixed cells with water, the plates were dried at room temperature. The cells were colored by adding 100 μl/measuring point of a 0.1% crystal violet solution (the pH was set at 3 by adding acetic acid). After three washing cycles of the colored cells with water, the plates were dried at room temperature. The dye was dissolved by adding 100 μl/measuring point of a 10% acetic acid solution. The extinction was determined by photometry at a wavelength of 595 nm. The change of cell growth, in percent, was calculated by standardization of the measured values to the extinction values of the zero-point plate (=0%) and the extinction of the untreated (0 μm) cells (=100%).

The next data set deals with Tie2 (Homo sapiens, UniProt Q02763). Kind of data set: Tie2 kinase assay. The format is biochemical. As to conditions: poly-(Glu4Tyr) substrate, 33P-ATP, 10 minutes at room temperature; read-out: Tie 2 IC50. The procedure:
(§1) KDR (VEGFR II) and Tie2 Assay
(§2) In a microtiter plate (without protein binding!) that tapers to a point, the solutions are mixed in the following sequence:
(§3) 10 μl of substrate mixture
(§4) 10 μl of inhibitor dilution
(§5) 10 μl of enzyme solution.
(§6) It is mixed thoroughly and incubated for 10 minutes at room temperature. Then, 10 μl of the stop solution is added, mixed, and 10 μl of the solution is transferred to a P 81, phosphocellulose filter. It is washed several times in 0.1 M phosphoric acid. The filter paper is dried, coated with Meltilex and measured in a microbeta. The IC50 values are determined from the inhibitor concentration that is necessary to inhibit the phosphate incorporation to 50% of the uninhibited incorporation after removal of the blank reading (EDTA-stopped reaction).
(§7) Substrate solvent: 10 mmol of DTT, 10 mmol of MnCl2, 100 mmol of MgCl2 (DTT slightly oxidized, frozen at −80° C.). Before the test, 1:10 diluted with H2O.
(§8) Enzyme solvent: 120 mmol of TrisCl, pH 7.5; 10 μmol of Na3VO4.
(§9) 10 μl of volume of ATP stock solution A+25 μCi γ-^33P-ATP (about 2.5 μl of stock solution B)+30 μl of poly-(Glu4Tyr) stock solution C+1.21 ml of substrate solvent
(§10) Substances corresponding to the dilutions, 3% DMSO in substrate solvent as a control
(§11) 11.25 μg of the enzyme stock solution (KDR and FLT-1 kinase and Tie2) are diluted at of enzyme solvent (other amounts in the case of other activity!).
(§12) Stop Solution: […] of EDTA, pH 7.0
(§13) Washing Solution: 0.5% phosphoric acid

In a further data set the target is KDR (VEGFR II) (Homo sapiens, UniProt P35968). The data set can be described thus: KDR (VEGFR II) kinase assay. The format is biochemical. As to conditions: poly-(Glu4Tyr) substrate, 33P-ATP, 10 minutes at room temperature. The procedure: as §1, §2, §3, §4, §5, §6, §7, §8, §9, §10, §11, §12, §13
KDR (VEGFR II), sequence (P35968 20-1356, species assumed): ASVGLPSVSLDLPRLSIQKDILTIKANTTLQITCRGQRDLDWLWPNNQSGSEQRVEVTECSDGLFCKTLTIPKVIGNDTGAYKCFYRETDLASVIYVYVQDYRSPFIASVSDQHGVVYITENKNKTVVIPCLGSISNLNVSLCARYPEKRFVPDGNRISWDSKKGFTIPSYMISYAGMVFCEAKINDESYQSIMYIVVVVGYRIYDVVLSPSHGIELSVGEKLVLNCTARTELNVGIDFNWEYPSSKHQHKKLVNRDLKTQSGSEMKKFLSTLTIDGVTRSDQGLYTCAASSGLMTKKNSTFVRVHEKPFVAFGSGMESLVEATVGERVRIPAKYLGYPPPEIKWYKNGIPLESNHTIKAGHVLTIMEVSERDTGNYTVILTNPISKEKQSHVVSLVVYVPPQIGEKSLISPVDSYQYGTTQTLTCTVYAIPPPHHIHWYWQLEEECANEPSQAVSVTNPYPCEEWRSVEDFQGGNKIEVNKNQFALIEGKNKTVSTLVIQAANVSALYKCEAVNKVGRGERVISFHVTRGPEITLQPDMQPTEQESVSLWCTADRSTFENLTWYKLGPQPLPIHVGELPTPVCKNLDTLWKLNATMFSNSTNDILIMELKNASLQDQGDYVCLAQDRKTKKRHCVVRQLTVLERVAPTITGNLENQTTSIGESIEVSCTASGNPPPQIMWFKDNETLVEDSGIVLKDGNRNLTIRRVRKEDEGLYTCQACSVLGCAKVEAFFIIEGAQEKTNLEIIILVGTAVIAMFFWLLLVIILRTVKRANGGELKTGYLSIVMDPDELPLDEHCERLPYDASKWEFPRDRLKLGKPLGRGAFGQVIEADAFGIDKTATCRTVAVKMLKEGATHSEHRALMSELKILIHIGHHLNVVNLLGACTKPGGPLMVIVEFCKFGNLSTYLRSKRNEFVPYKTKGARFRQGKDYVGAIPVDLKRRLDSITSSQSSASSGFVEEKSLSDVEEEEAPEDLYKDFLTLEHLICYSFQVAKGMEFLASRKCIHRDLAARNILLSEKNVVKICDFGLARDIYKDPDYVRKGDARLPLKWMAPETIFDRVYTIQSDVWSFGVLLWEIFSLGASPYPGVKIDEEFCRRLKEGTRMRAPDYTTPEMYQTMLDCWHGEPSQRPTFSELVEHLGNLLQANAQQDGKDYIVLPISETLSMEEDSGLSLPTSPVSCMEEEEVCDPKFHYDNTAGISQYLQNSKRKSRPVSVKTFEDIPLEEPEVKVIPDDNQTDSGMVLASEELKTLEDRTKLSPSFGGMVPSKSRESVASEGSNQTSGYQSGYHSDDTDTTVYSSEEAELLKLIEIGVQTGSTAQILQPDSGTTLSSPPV
For the next data set, the target named is T1, CDK2/CycE (Homo sapiens, UniProt P24941).
T1 construct: GST; purchased Dr. Dieter Marme, Klinik für Tumorbiologie, Freiburg (obtained from an outside laboratory, not a commercial vendor); host or cells: baculovirus-infected insect cells (Sf9)
Kind of data set: CDK2/CycE kinase assay. The format is biochemical. As to conditions: histone IIIS substrate, 0.5 μm ATP, 15 minutes at 22° C. The procedure: Recombinant CDK2- and CycE-GST-fusion proteins, purified from baculovirus-infected insect cells (Sf9), were obtained by Dr. Dieter Marme, Klinik für Tumorbiologie [Clinic for Tumor Biology], Freiburg. Histone IIIS, which was used as a kinase substrate, was purchased by the Sigma Company.
CDK2/CycE (50 ng/measuring point) was incubated for 15 minutes at 22° C. in the presence of various concentrations of test substances (0 μm, as well as within the range of 0.01-100 μm) in assay buffer [50 mmol of tris/HCl pH 8.0, 10 mmol of MgCl2, 0.1 mmol of Na ortho-vanadate, 1.0 mmol of dithiothreitol, 0.5 μm of adenosine triphosphate (ATP), 10 μg/measuring point of histone IIIS, 0.2 μCi/measuring point of ^33P-gamma ATP, 0.05% NP40, 12.5% dimethyl sulfoxide]. The reaction was stopped by adding EDTA solution (250 mmol, pH 8.0, 14 μl/measuring point).
From each reaction batch, 10 μl was applied to P30 filter strips (Wallac Company), and non-incorporated ^33P-ATP was removed by subjecting the filter strips to three washing cycles for 10 minutes each in 0.5% phosphoric acid. After the filter strips were dried for one hour at 70° C., the filter strips were covered with scintillator strips (MeltiLex™ A, Wallac Company) and baked for one hour at 90° C. The amount of incorporated ^33P (substrate phosphorylation) was determined by scintillation measurement in a gamma-radiation measuring device (Wallac).

Tie2, sequence (Q02763 23-1124, species assumed): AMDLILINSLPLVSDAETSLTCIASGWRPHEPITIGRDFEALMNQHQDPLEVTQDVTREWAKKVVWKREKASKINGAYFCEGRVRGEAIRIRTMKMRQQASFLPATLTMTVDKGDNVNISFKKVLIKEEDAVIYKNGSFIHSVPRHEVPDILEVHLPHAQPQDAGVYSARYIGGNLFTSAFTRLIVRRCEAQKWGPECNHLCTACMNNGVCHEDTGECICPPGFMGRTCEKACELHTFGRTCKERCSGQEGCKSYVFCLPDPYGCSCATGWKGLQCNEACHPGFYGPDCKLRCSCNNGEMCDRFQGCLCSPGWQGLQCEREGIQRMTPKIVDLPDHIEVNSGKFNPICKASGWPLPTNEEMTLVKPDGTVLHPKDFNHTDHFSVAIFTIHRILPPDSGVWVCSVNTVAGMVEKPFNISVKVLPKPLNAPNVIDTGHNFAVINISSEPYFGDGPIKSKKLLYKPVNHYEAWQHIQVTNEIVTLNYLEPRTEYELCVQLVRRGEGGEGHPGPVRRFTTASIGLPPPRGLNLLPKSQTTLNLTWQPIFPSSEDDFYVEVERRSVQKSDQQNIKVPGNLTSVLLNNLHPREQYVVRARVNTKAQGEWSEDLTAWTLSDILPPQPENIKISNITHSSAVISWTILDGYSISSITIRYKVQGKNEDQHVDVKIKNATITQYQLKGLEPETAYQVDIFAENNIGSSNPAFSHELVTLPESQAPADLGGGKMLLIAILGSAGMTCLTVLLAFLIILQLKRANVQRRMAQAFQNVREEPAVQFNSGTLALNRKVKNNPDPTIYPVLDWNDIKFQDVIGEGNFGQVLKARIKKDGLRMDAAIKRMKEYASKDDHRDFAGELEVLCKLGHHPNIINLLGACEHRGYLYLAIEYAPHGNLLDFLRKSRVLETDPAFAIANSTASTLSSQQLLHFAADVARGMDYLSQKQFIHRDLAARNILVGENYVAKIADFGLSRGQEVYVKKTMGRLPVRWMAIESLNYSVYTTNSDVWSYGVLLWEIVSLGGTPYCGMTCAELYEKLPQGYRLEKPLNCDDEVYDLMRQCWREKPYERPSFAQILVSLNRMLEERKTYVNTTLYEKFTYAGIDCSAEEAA

On to `COc1ncccc1Nc1nc(N)n(-c2ccccn2)n1` [Example 11], for which the melting point – broadly, the temperature of the solid-liquid transition – came to 169 °C.

As for `Nc1nc(Nc2cncc(Br)c2)nn1-c1ccccn1` [Example 15], the melting point was found to be 285 °C. The IC50 – broadly, the point on the concentration scale where inhibition reaches its midpoint – with human MCF7 tumor cells was found to be 1100 nM. The IC50 at Tie2 is 500 nM. Moreover, inhibition against KDR (VEGFR II) was half-maximal at 40 nM (IC50). At CDK2/CycE, this compound displayed an IC50 of 300 nM.

On to `Nc1nc(Nc2cccnc2)nn1-c1ccc(C(F)(F)F)cn1` [Example 6], for which the melting point came out at 254 °C. Further, in the data set on human MCF7 tumor cells, the IC50 is 4000 nM. In addition, the IC50 on Tie2 was more than 1000 nM. The compound further came in with an IC50 on KDR (VEGFR II) of 200 nM. For the same compound, the IC50 at CDK2/CycE amounted to 2000 nM.

In turn, `Nc1nc(Nc2ccc3ccccc3n2)nn1-c1ccccn1` [Example 19] returned a melting point of 326 °C.

The compound `Nc1nc(Nc2cccnc2)nn1-c1ncccc1C(F)(F)F` [Example 4] gave a melting point of 255 °C. In the data set with human MCF7 tumor cells, the IC50 is 6000 nM. Further, the IC50 on Tie2 was more than 1000 nM. On KDR (VEGFR II), half-maximal inhibition (IC50) required 30 nM. Inhibition at CDK2/CycE was half-maximal at 6000 nM (IC50).

Compound `Nc1nc(Nc2cccnc2)nn1-c1nccc2ccccc12` [Example 13] returned a melting point of 246 °C. Also, the IC50 in the data set with human MCF7 tumor cells stood at 700 nM. For the same compound, on Tie2, the IC50 worked out at 500 nM. For the same compound, the IC50 on KDR (VEGFR II) came to 20 nM. This compound also showed an IC50 against CDK2/CycE of 200 nM.

In the case of `Nc1nc(Nc2cnc3ccccc3c2)nn1-c1ccc2ccccc2n1` [Example 12], the melting point was found to be 249 °C.

Compound `Cc1cc(C(F)(F)F)cc(-n2nc(Nc3cccnc3)nc2N)n1` [Example 3] returned a melting point of 212 °C. Further, in the data set with human MCF7 tumor cells, the IC50 is more than 10000 nM. Further, the IC50 at Tie2 was more than 1000 nM. For the same compound, on KDR (VEGFR II), the IC50 amounted to 10 nM. In addition, the IC50 against CDK2/CycE was found to be 2000 nM.

As for `Nc1nc(Nc2nccc3ccccc23)nn1-c1ccccn1` [Example 18], the melting point was determined as 278 °C.

On to `Nc1nc(Nc2cnc3ccccc3c2)nn1-c1ccccn1` [Example 10], for which the melting point stood at 225 °C. Also, in the data set with human MCF7 tumor cells, the IC50 was determined as 4000 nM. The IC50 at Tie2 stood at 500 nM. The compound further gave an IC50 against KDR (VEGFR II) of 20 nM. The compound also had an IC50 on CDK2/CycE of 800 nM.

In the case of `Nc1nc(Nc2cnc3ncccc3c2)nn1-c1ccccn1` [Example 17], the melting point was 253 °C. The IC50 with human MCF7 tumor cells came out at 1500 nM. In addition, the IC50 on Tie2 is more than 1000 nM. The compound further came in with an IC50 against KDR (VEGFR II) of 30 nM. Besides, the IC50 at CDK2/CycE was 500 nM.

Regarding `Cc1ccc(Nc2nc(N)n(-c3ccccn3)n2)c(C)n1` [Example 21], the melting point amounted to 191 °C.

`Nc1nc(Nc2cnccc2Cl)nn1-c1ccccn1` [Example 20] registered a melting point of 193 °C.

As for `Nc1nc(Nc2cccnc2)nn1-c1cccnc1` [Example 7], the melting point is 234 °C.

Consider `COc1ccc(Nc2nc(N)n(-c3ccccn3)n2)cn1` [Example 9], for which the melting point is 237 °C. Moreover, the IC50 in the data set on human MCF7 tumor cells is more than 10000 nM. Besides, the IC50 at Tie2 was found to be 500 nM. Moreover, the IC50 on KDR (VEGFR II) was determined as 50 nM. The compound also came in with an IC50 at CDK2/CycE of 1000 nM.

In the case of `Nc1nc(Nc2cncc3ccccc23)nn1-c1ccccn1` [Example 16], the melting point came out at 287 °C. Also, the IC50 at KDR (VEGFR II) came out at 20 nM. Also, the IC50 on CDK2/CycE amounted to 2800 nM.

As for `Nc1nc(Nc2cccnc2)nn1-c1ccccn1` [Example 1, 5-Amino-1-(2-pyridinyl)-3-(3-pyridinylamino)-1H-1,2,4-triazole], the IC50 in the data set with human MCF7 tumor cells is 1500 nM.

The compound `Nc1nc(Nc2cccnc2)nn1-c1ccccc1` [Example 8] displayed a melting point of 223 °C.

As for `Nc1nc(Nc2cccnc2)nn1-c1ccc2ccccc2c1` [Example 5], the melting point was 247 °C. Also, the concentration for half-maximal inhibition (IC50) with human MCF7 tumor cells was determined as 2000 nM. In addition, the IC50 on Tie2 was more than 1000 nM. This compound returned an IC50 against KDR (VEGFR II) of 10 nM. This compound had an IC50 against CDK2/CycE of 400 nM.

`COc1ccc(Nc2nc(N)n(-c3ccccn3)n2)c(OC)n1` [Example 14] came in with a melting point of 159 °C.
